From PubChem BioAssay AID216 (DTP/NCI, 2004)
Values joined by “and” are separate entries in the source; they are usually repeats but may differ in a detail not shown here. Identical values can stand only once. Inconclusive results and toxic doses are left out.

System: BDF1 mice, P288 leukemia ip, survival T/C
Experiment: NCI In Vivo Anticancer Drug Screen. Data for tumor model P288 Lymphocytic Leukemia (intraperitoneal) in B6D2F1 (BDF1) mice
Details: endpoint: survival time, mean or median, higher = longer survival
Experimental: The antitumor activity of compounds was measured in mice bearing transplantable tumors. Survival or tumor size were measured and the results are expressed as the measurement made in the treated group (T) divided by the measurement made in the vehicle treated control group (C). The tumor model used in this assay is P288 Lymphocytic Leukemia (intraperitoneal) in B6D2F1 (BDF1) mice

[1] = dose: 62.5 mg/kg/injection, schedule: Q01DX Z (ip), vehicle: carboxymethylcellulose (CMC)
[2] = dose: 250.0 mg/kg/injection, schedule: Q01DX Z (ip), vehicle: carboxymethylcellulose (CMC)
[3] = dose: 12.5 mg/kg/injection, schedule: Q01DX Z (ip), vehicle: carboxymethylcellulose (CMC)
[4] = dose: 25.0 mg/kg/injection, schedule: Q01DX Z (ip), vehicle: carboxymethylcellulose (CMC)
[5] = dose: 20.0 mg/kg/injection, schedule: Q01DX010 (ip), vehicle: saline
[6] = dose: 40.0 mg/kg/injection, schedule: Q01DX010 (ip), vehicle: saline
[7] = dose: 10.0 mg/kg/injection, schedule: Q01DX010 (ip), vehicle: saline

With `CCOC(=O)NP(=O)(N1CC1(C)C)N1CC1(C)C` (stereo not drawn) the T/C (dose: 16.0 mg/kg/injection, schedule: Q01DX Z (ip), vehicle: carboxymethylcellulose (CMC)) was 95 % of control, the T/C (dose: 31.0 mg/kg/injection, schedule: Q01DX Z (ip), vehicle: carboxymethylcellulose (CMC)) was 98 % of control and the T/C [1] was 112 % of control. The T/C [2] was 180 % of control and the T/C (dose: 500.0 mg/kg/injection, schedule: Q01DX Z (ip), vehicle: carboxymethylcellulose (CMC)) was 117 % of control.
For `CN(C)/N=N/c1nc[nH]c1C(N)=O`, the T/C (dose: 25.0 mg/kg/injection, schedule: Q01DX010 (ip), vehicle: saline) was 100 % of control, the T/C (dose: 50.0 mg/kg/injection, schedule: Q01DX010 (ip), vehicle: saline) was 88 % of control and the T/C (dose: 100.0 mg/kg/injection, schedule: Q01DX010 (ip), vehicle: saline) was 94 % of control and 100 % of control. The T/C (dose: 200.0 mg/kg/injection, schedule: Q01DX010 (ip), vehicle: saline) was 100 % of control.
In the case of `CN(Cc1cnc2nc(N)nc(N)c2n1)c1c(Cl)cc(C(=O)NC(CCC(=O)O)C(=O)O)cc1Cl` (stereo not drawn), the T/C [3] is reported as 232 % of control, the T/C [4] is reported as 300 % of control and the T/C (dose: 50.0 mg/kg/injection, schedule: Q01DX Z (ip), vehicle: carboxymethylcellulose (CMC)) is reported as 320 % of control. The T/C (dose: 100.0 mg/kg/injection, schedule: Q01DX Z (ip), vehicle: carboxymethylcellulose (CMC)) was 288 % of control.
In the case of `Nc1nc(F)nc2c1ncn2C1OC(CO)C(O)C1O` (stereo not drawn), the T/C (dose: 0.5 mg/kg/injection, schedule: Q01DX010 (ip), vehicle: saline) is reported as 111 % of control, the T/C (dose: 1.0 mg/kg/injection, schedule: Q01DX010 (ip), vehicle: saline) is reported as 100 % of control and the T/C (dose: 2.0 mg/kg/injection, schedule: Q01DX010 (ip), vehicle: saline) is reported as 88 % of control. For the same molecule, the T/C (dose: 4.0 mg/kg/injection, schedule: Q01DX010 (ip), vehicle: saline) was 88 % of control, the T/C (dose: 125.0 micrograms/kg/injection, schedule: Q01DX010 (ip), vehicle: saline) was 88 % of control and the T/C (dose: 500.0 micrograms/kg/injection, schedule: Q01DX010 (ip), vehicle: saline) was 111 % of control. The T/C (dose: 1000.0 micrograms/kg/injection, schedule: Q01DX010 (ip), vehicle: saline) was 116 % of control.
With `CCOC(=O)c1[nH]c2ccccc2c1CN(CCCl)CCCl` the T/C [5] was 95 % of control and the T/C [6] was 100 % of control.
With `C[C@]12CCC(=O)C=C1CC[C@H]1[C@@H]3CC[C@](O)(C(=O)CO)[C@@]3(C)C[C@H](O)[C@@]12F` the T/C (dose: 0.45 mg/kg/injection, schedule: Q01DX Z (sc), vehicle: steriod suspending solution) was 97 % of control, the T/C (dose: 0.9 mg/kg/injection, schedule: Q01DX Z (sc), vehicle: steriod suspending solution) was 98 % of control and the T/C (dose: 1.8 mg/kg/injection, schedule: Q01DX Z (sc), vehicle: steriod suspending solution) was 110 % of control and 97 % of control. For the same molecule, the T/C (dose: 3.75 mg/kg/injection, schedule: Q01DX Z (sc), vehicle: steriod suspending solution) was 106 % of control, the T/C (dose: 7.5 mg/kg/injection, schedule: Q01DX Z (sc), vehicle: steriod suspending solution) was 108 % of control and the T/C (dose: 15.0 mg/kg/injection, schedule: Q01DX Z (sc), vehicle: steriod suspending solution) was 106 % of control. The T/C (dose: 30.0 mg/kg/injection, schedule: Q01DX Z (sc), vehicle: steriod suspending solution) was 108 % of control, the T/C (dose: 60.0 mg/kg/injection, schedule: Q01DX Z (sc), vehicle: steriod suspending solution) was 102 % of control and the T/C (dose: 120.0 mg/kg/injection, schedule: Q01DX Z (sc), vehicle: steriod suspending solution) was 105 % of control.
In the case of `Clc1ncnc2nc[nH]c12`, the T/C (dose: 7.5 mg/kg/injection, schedule: Q01DX010 (ip), vehicle: saline) is reported as 88 % of control, the T/C (dose: 30.0 mg/kg/injection, schedule: Q01DX010 (ip), vehicle: saline) is reported as 94 % of control and the T/C (dose: 31.25 mg/kg/injection, schedule: Q01DX Z (ip), vehicle: carboxymethylcellulose (CMC)) is reported as 86 % of control and 95 % of control. For the same molecule, the T/C [1] was 101 % of control and 102 % of control and 105 % of control, the T/C (dose: 125.0 mg/kg/injection, schedule: Q01DX Z (ip), vehicle: carboxymethylcellulose (CMC)) was 112 % of control and 114 % of control and 97 % of control and the T/C [2] was 106 % of control (2×) and 110 % of control.
In the case of `O=C(O)CCCc1ccc(N(CCCl)CCCl)cc1`, the T/C (dose: 3.1 mg/kg/injection, schedule: Q01DX Z (ip), vehicle: carboxymethylcellulose (CMC)) is reported as 110 % of control, the T/C (dose: 3.13 mg/kg/injection, schedule: Q01DX010 (ip), vehicle: saline) is reported as 88 % of control and the T/C (dose: 6.25 mg/kg/injection, schedule: Q01DX010 (ip), vehicle: saline) is reported as 100 % of control. For the same molecule, the T/C (dose: 6.25 mg/kg/injection, schedule: Q01DX Z (ip), vehicle: carboxymethylcellulose (CMC)) was 90 % of control, the T/C (dose: 12.5 mg/kg/injection, schedule: Q01DX010 (ip), vehicle: saline) was 100 % of control and the T/C [3] was 106 % of control. The T/C [4] was 114 % of control and 88 % of control.
`Nc1c(Br)cc2c(c1Br)Cc1cc([N+](=O)[O-])ccc1-2` was tested, and the T/C (dose: 15.6 mg/kg/injection, schedule: Q01DX010 (ip), vehicle: saline) was 122 % of control, the T/C (dose: 31.3 mg/kg/injection, schedule: Q01DX010 (ip), vehicle: saline) was 116 % of control and the T/C (dose: 62.5 mg/kg/injection, schedule: Q01DX010 (ip), vehicle: saline) was 111 % of control and 116 % of control. The T/C (dose: 125.0 mg/kg/injection, schedule: Q01DX010 (ip), vehicle: saline) was 116 % of control and 94 % of control and the T/C (dose: 500.0 mg/kg/injection, schedule: Q01DX010 (ip), vehicle: saline) was 88 % of control.
For `CSCS(=O)C[C@H](CO)NC(=O)/C=C/c1c(C)[nH]c(=O)[nH]c1=O` (stereo partly drawn), the T/C (dose: 0.06 mg/kg/injection, schedule: Q01DX Z (ip), vehicle: saline) was 102 % of control, the T/C (dose: 0.12 mg/kg/injection, schedule: Q01DX Z (ip), vehicle: saline) was 96 % of control and the T/C (dose: 0.25 mg/kg/injection, schedule: Q01DX Z (ip), vehicle: saline) was 107 % of control and 96 % of control. The T/C (dose: 0.5 mg/kg/injection, schedule: Q01DX Z (ip), vehicle: saline) was 90 % of control and 96 % of control and the T/C (dose: 1.0 mg/kg/injection, schedule: Q01DX Z (ip), vehicle: saline) was 97 % of control.
With `N#[N+]c1cnc([O-])[nH]c1=O` the T/C (dose: 0.63 mg/kg/injection, schedule: Q01DX Z (ip), vehicle: carboxymethylcellulose (CMC)) was 112 % of control, the T/C (dose: 1.25 mg/kg/injection, schedule: Q01DX010 (ip), vehicle: saline) was 105 % of control and the T/C (dose: 1.25 mg/kg/injection, schedule: Q01DX Z (ip), vehicle: carboxymethylcellulose (CMC)) was 117 % of control. For the same molecule, the T/C (dose: 2.5 mg/kg/injection, schedule: Q01DX010 (ip), vehicle: saline) was 104 % of control and the T/C [7] was 155 % of control.
`Cc1cc(N(CCCl)CCCl)ccc1N=Nc1ccccc1C(=O)O` was tested, and the T/C (dose: 0.45 mg/kg/injection, schedule: Q01DX Z (ip), vehicle: carboxymethylcellulose (CMC)) was 108 % of control, the T/C (dose: 0.9 mg/kg/injection, schedule: Q01DX Z (ip), vehicle: carboxymethylcellulose (CMC)) was 105 % of control and the T/C (dose: 1.8 mg/kg/injection, schedule: Q01DX Z (ip), vehicle: carboxymethylcellulose (CMC)) was 104 % of control. For the same molecule, the T/C (dose: 3.75 mg/kg/injection, schedule: Q01DX Z (ip), vehicle: carboxymethylcellulose (CMC)) was 101 % of control, the T/C (dose: 5.0 mg/kg/injection, schedule: Q01DX010 (ip), vehicle: saline) was 88 % of control and 90 % of control and the T/C (dose: 7.5 mg/kg/injection, schedule: Q01DX Z (ip), vehicle: carboxymethylcellulose (CMC)) was 108 % of control. The T/C [7] was 90 % of control and 94 % of control, the T/C [5] was 105 % of control and 90 % of control and the T/C [6] was 94 % of control.
